Tests used:
[1] = set-up: species or system rats; conditions: rat, 100 mg/kg
Protocol: 5-[4-(3-Carboxy-propionylsulfamoyl)-phenylazo]-2-hydroxy-benzoic acid (1), a compound of the present invention, and sulfasalazine (used as a control; not part of the present invention) were orally dosed to rats. The degradation and the generation of their metabolites after the oral dosing were measured to be able to confirm that (1) undergoes bacterial azo reduction and yields its metabolites, 5-aminosalicylic acid (5-ASA) and C4 sulfanomide.
This experiment was performed to confirm that (1) undergoes a bacterial reduction process and yields its metabolites in in-vivo metabolism. The quantification of its metabolites was also carried out. Sulfasalazine was used as a control since the same azo bond cleavage by bacteria occurs with it, which results in 5-aminosalicylic acid and sulfapyridine as its metabolites.
A total of 7 rats were used for the experiment and methylcellulose was used as a vehicle. The dosage amount was 100 mg/kg per rat. Three rats were dosed with (1) and the other three rats were dosed with sulfasalazine. One rat was used as a control and dosed with methylcellulose. Both urine and feces were collected over 2 days and analyzed by […].
Urine was collected each day and 300 μL of aliquot from each sample was centrifuged for 10 minutes at 5000 g. 80 μL of supernatant was injected for analysis. Feces was also collected, each day and homogenized with a 1:1 mixture of water and acetonitrile. This mixture was then centrifuged for 20 minutes at 5000 g. 80 μL of supernatant was injected for analysis.
A Waters 2690 HPLC was used for sample analysis as follows:
Mobile phase programming: Gradient
Mobile phase: A=Water+0.1% TFA B=Acetonitrile+0.1% TFA
Column: Phenomenex Max RP, 80 Å, 4.6 mm×250 mm
PDA settings: Collected spectrum: 210-400nm Extracted chromatogram: 280 and/or other
Run time/sample: Approximately 50 min.

Row | Structure (SMILES) | degradation after oral dosing ([1]; in vivo) | compounds detected, day 2 collection ([1]; in vivo, po) | metabolites detected in feces, day 1 collection ([1]; in vivo, po) | metabolites detected in urine ([1]; in vivo, po) | parent compound detected in feces ([1]; in vivo, po) | parent compound detected in urine ([1]; in vivo, po) | azo reduction in vivo ([1]; po) | melting point | generation of sulfapyridine ([1]; in vivo, po)
1 | O=C(O)CCC(=O)NS(=O)(=O)c1ccc(N=Nc2ccc(O)c(C(=O)O)c2)cc1 [(1), 5-[4-(3-Carboxy-propionylsulfamoyl)-phenylazo]-2-hydroxy-benzoic acid] | degraded and its metabolites were produced as expected | No compounds were detected | acetylated 5-ASA and C4 sulfanomide were detected | none of its metabolites were detected | not detected | only a very small amount | undergo azo reduction | 192 °C | –
2 | O=C(O)c1cc(/N=N/c2ccc(S(=O)(=O)Nc3ccccn3)cc2)ccc1O [Sulfasalazine, sulfasalazine, reference compound] | also degraded | No compounds were detected | Most rats showed acetylated 5-ASA | – | – | – | undergo azo reduction | – | only one rat showed the generation of sulfapyridine
3 | O=C(O)CC(=O)NS(=O)(=O)c1ccc(N=Nc2ccc(O)c(C(=O)O)c2)cc1 [Example 3, 5-[4-(2-Carboxy-Acetylsulfamoyl)-Phenylazo]-2-Hydroxy-Benzoic Acid] | – | – | – | – | – | – | – | 178 °C | –

Source: patent US6458776B1, “5-ASA derivatives having anti-inflammatory and antibiotic activity and methods of treating diseases therewith” (Nobex Corporation, priority 2000, dated 2002)
